Experimental data taken from article PMC10145651, “Modulation of the 5-Lipoxygenase Pathway by Chalcogen-Containing Inhibitors of Leukotriene A4 Hydrolase” (International Journal of Molecular Sciences, 2023).
Read-outs that look alike come from different tables or passages of the source.

How the values were obtained:
LTA4H = biological target: T1, LTA4H (Homo sapiens, UniProt P09960); experiment: Epoxide hydrolase inhibition assay with recombinant LTA4H (LTA4 to LTB4); format: biochemical; set-up: made in house; host or cells: Escherichia coli JM101; conditions: epoxide hydrolase activity, 10-40 μM LTA4, competitive inhibition model
T1 sequence (P09960 1-611): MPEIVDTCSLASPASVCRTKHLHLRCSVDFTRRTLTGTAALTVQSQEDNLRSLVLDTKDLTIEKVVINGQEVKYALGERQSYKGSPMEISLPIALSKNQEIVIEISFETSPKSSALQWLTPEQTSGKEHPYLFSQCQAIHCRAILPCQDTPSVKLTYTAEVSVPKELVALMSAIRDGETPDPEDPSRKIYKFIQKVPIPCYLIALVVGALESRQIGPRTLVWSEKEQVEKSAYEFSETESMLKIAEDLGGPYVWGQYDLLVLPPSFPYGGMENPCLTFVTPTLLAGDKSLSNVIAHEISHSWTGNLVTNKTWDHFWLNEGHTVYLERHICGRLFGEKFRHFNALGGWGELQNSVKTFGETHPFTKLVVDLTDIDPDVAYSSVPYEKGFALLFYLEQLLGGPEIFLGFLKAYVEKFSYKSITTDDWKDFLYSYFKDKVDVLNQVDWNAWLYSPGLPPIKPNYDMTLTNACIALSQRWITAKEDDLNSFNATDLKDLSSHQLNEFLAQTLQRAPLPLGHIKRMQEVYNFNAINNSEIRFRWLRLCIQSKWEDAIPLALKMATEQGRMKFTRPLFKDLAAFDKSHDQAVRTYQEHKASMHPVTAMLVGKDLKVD
Text: Human recombinant LTA4H was expressed in Escherichia coli JM101 strain and purified as described previously. In short, supernatant of lysed cells was loaded on a nickel affinity column followed by the purification steps with the Mono Q 5/50 and Superdex HiLoad 16/600 columns (Cytiva, Uppsala, Sweden). Protein purity was checked by sodium dodecyl-sulfate polyacrylamide gel electrophoresis (SDS-PAGE)(XCell SureLock Mini-Cell Electrophoresis System and PowerEase 300W Power Supply) with a NuPAGE Bis-Tris 4–12% gels (Invitrogen, Waltham, MA, USA) after every purification step.
Purified LTA4H (3 μg) was pre-incubated with 0–50 μM inhibitors on ice for 3 min and the epoxide hydrolase reaction was carried out with 10 μM, 20 μM or 40 μM LTA4 for 15 s in 100 μL 25 mM Tris-HCl pH 7.8 at room temperature. The incubation was stopped by addition of 2 vol of methanol, containing 300 pmol PGB2 (ε ~ 26,000 M^−1 cm^−1; λmax = 280 nm) as an internal standard, and followed by 1 vol of distilled water. […] The formation of LTB4 (ε ~ 50,000 M^−1 cm^−1) was determined at 270 nm. The Ki value for each inhibitor was calculated using the competitive inhibition model in the GraphPad Prism 9 program.

5-LOX = biological target: T2, 5-LOX (Homo sapiens, UniProt P09917); experiment: 5-LOX product formation from intact PMNs: 5S-HETE (cellular activity of 5-LOX); format: cell-based; set-up: stimulated intact polymorphonuclear neutrophils (PMNs); endogenous in cells; host or cells: human primary polymorphonuclear neutrophils (PMNs) from peripheral blood; conditions: for inhibitory effect on the 5-LOX activity (5S-HETE) in PMNs with exogenous AA: 0.5 µM inhibitor, 0–20 µM AA
T2 sequence (P09917 1-674): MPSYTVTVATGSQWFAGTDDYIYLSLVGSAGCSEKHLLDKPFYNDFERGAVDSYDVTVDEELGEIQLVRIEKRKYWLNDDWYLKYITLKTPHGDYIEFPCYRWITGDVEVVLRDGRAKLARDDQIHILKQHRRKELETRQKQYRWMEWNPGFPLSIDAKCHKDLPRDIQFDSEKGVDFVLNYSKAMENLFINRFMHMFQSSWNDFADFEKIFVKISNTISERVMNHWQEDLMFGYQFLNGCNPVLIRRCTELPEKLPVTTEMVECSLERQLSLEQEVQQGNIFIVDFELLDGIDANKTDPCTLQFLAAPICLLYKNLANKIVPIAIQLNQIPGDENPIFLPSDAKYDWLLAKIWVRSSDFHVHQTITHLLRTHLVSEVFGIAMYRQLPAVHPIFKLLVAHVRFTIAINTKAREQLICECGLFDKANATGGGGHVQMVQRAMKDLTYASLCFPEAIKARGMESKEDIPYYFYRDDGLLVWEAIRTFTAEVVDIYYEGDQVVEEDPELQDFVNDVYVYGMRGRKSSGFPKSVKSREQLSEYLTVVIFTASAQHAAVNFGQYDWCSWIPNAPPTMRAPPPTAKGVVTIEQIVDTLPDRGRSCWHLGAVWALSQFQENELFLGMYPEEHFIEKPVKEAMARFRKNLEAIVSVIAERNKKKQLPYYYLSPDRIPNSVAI
Description: Human primary leukocytes were isolated from peripheral blood of healthy adult volunteers provided by the Institute of Transfusion Medicine at the University Hospital Greifswald as described before. All methods were performed in accordance with the Declaration of Helsinki. In brief, erythrocytes were removed by dextran sedimentation and leukocytes were separated by the density gradient centrifugation on a lymphocyte separation medium (Histopaque®-1077, Merck, Darmstadt, Germany). The remaining erythrocytes were removed by hypotonic lysis using water, and resulting polymorphonuclear neutrophils (PMNs) were resuspended in PBS containing 0.1% (w/v) glucose (PG buffer) or PG buffer with 1 mM CaCl2 (PGC buffer) as indicated. Resulting peripheral blood mononuclear cells (PBMC), including monocytes, were seeded in the RPMI 1640 medium supplemented with 10% (v/v) FCS, 100 U/mL penicillin, 100 µg/mL streptomycin and 2 mM L-glutamine in cell culture flasks (Greiner Bio-one, Frickenhausen, Germany) for 1.5 h at 37 °C and 5% CO2. Adherent monocytes were washed twice with PBS and were finally resuspended in the RPMI 1640 medium as described before.
PMNs (5 × 10^6 cells/mL) were diluted in PGC buffer and pre-incubated with the vehicle (0.1%; v/v) or compounds for 10 min at 37 °C prior to the stimulation with 2.5 µM A23187. After 10 min at 37 °C, treatments were stopped on ice with an equal volume of ice-cold methanol. Next, 530 µL acidified PBS containing 200 ng PGB1 as an internal standard were added to the sample followed by the solid phase extraction with on a RP18 column. […] Formed 5-LOX metabolites were analyzed as described previously.

[1] = A23187-activated intact PMNs, 5S-HETE formation, read-out: IC50 on the 5-LOX activity (5S-HETE) in PMNs

Ki (LTA4H) | IC50 (5-LOX; [1]) | Compound | inhibitory effect on the 5-LOX activity (5S-HETE) in PMNs with exogenous AA (5-LOX) | IC50 (5-LOX)
1500 nM | 1700 nM | Nc1nc(-c2ccc(Cc3ccccc3)cc2)cs1 [ARM1, 4-(4-benzylphenyl) thiazol-2-amine, reference compound] | – | –
3800 nM | 2300 nM | Nc1nc(-c2ccc(Cc3ccccc3)cc2)co1 [TTO, 4-(4-benzylphenyl) oxazol-2-amine] | did not have any inhibitory effects | –

Compound | Ki (LTA4H) | IC50 (5-LOX; [1]) | inhibitory effect on the 5-LOX activity (5S-HETE) in PMNs with exogenous AA (5-LOX) | IC50 (5-LOX)
Nc1nc(-c2ccc(Cc3ccccc3)cc2)c[se]1 [TTSe, 4-(4-benzylphenyl) selenazol-2-amine] | 4800 nM | – | did not have any inhibitory effects | 2300 nM
